Measurements as given in patent publication US20150230462A1, “METHODS FOR IMPROVING GERMINATION AND STRESS TOLERANCE CHARACTERISTICS WITH JASMONATES” (New Biology, Inc., priority 2014, published 2015).
“Also recorded” adds a separate entry of the source.

Experiments:
[1] = test system: non-germinated seeds and resulting plants; details: U.S. Pat. No. 8,115,053 to Roberts et al.; treating non-germinated seeds; cited from earlier work
[2] = test system: wheat (Triticum aestivum ‘Liquid Sunshine’) seeds; assay: Germinating wheat seeds (48 hours water soak) soaked 1 hour in MDHJ: germination at Day 6 (Example 28); assay type: in vivo; details: for Percent of Seeds Germinated at Day 6, Wheat: 1 hour soak after 48 hours in water
Experimental: (§1) Seeds of wheat (Triticum aestivum ‘Liquid Sunshine’), corn (‘Sugar Pearl’) and swiss chard (‘Peppermint Stick’) were soaked in water for 48 hours, immediately followed by a 1 hour soak in no MDHJ (untreated control, or UTC), 1.5 mM MDHJ or 7.5 mM MDHJ. Seeds were then rinsed and placed between sheets of moistened paper towel and surrounded by a saran wrap tent to keep the germinating environment moist. There were 13-25 seeds for each treatment of each plant. At Day 6, seed germination was measured for each plant.

plants [3] = details: U.S. Patent Application Publication No. 2009/0082453; cited from earlier work
plants [4] = details: U.S. Patent Application Publication No. 2009/0133166; cited from earlier work
[5] = test system: Seeds of corn (‘Sugar Pearl’); assay: Planted germinating corn seeds, soil sprayed with MDHJ: seedling emergence and plant height (Example 29); assay type: in vivo; details: for Percent Seedling Emergence: 12.5 ml/pot sprayed on soil two days after planting, 21 days after planting, n=16
Experimental: Seeds of corn (‘Sugar Pearl’) were soaked in water for 48 hours and subsequently planted 1-inch deep in potting soil in 6-inch pots. Two days after planting, the soil was sprayed with 12.5 ml/pot of 0 mM (UTC), 0.75 mM or 7.5 mM MDHJ. There were 8 seeds planted per pot and two pots for each treatment (n=16). Germination was recorded 21 days after planting, and plant height measured 24 days after planting.

[6] = test system: swiss chard (‘Peppermint Stick’) seeds; assay: Germinating swiss chard seeds (48 hours water soak) soaked 1 hour in MDHJ: germination at Day 6 (Example 28); assay type: in vivo; details: for Percent of Seeds Germinated at Day 6, Swiss Chard: 1 hour soak after 48 hours in water
Experimental: as §1

[7] = test system: Seeds of wheat (Triticum aestivum ‘Liquid Sunshine’); assay: Germinating wheat seeds soaked 1 hour in MDHJ: percent germination, coleoptile length (Example 27); assay type: in vivo; details: for Percent of Wheat Seeds Germinated at Day 7: 1 hour soak after 24 hours in water
Experimental: Seeds of wheat (Triticum aestivum ‘Liquid Sunshine’) were soaked in water for 24 hours. After 24 hours, seeds were transferred to a solution containing water only (untreated control or UTC), 0.05 mM MDHJ, 0.5 mM MDHJ, or 5.0 mM MDHJ in water. There were 16-20 seeds per treatment. After soaking for 1 hour, the seeds were rinsed in water and placed between two layers of water-moistened paper towel in a clear plastic covered tray. The trays were placed at room temperature with normal daylight conditions and allowed to germinate. At day 7, the percent of germinated seeds was obtained and coleoptile length was measured.

Sugar snap pea seeds = Sugar snap pea seeds treated with MDHJ soak solutions with wetting agent: seeds germinated (Example 3); assay type: in vivo
Experimental: Non-germinated seeds of the hybrid corn varietal “Early Sun Glow” were treated with MDHJ by soaking for 24 hours in 50 mL conical vessels in one of four treatment solutions. During the soak, the seeds spent 12 hours in typical lighting conditions and 12 hours in darkness. The four treatment solutions are set forth below in Table 5. In Table 5, COCO-WET® is a wetting agent sold by Spray-N-Grow, Inc. of Rockport, Tex. On Day 2, 4 2-inch pots were planted with three seeds each, for a total of 12 seeds per treatment. Germination of the potted seeds was measured at days 8 and 15. Sugar snap pea seeds were treated according to the procedure in Example 2. The number of seeds germinated were counted at days 8 and 15 after treatment.

[8] = test system: Seeds of Redina lettuce (Lechuga redina); assay: Redina lettuce seeds treated with MDHJ soak solutions with wetting agent (Example 4); assay type: in vivo
Experimental: Non-germinated seeds of the hybrid corn varietal “Early Sun Glow” were treated with MDHJ by soaking for 24 hours in 50 mL conical vessels in one of four treatment solutions. During the soak, the seeds spent 12 hours in typical lighting conditions and 12 hours in darkness. The four treatment solutions are set forth below in Table 5. In Table 5, COCO-WET® is a wetting agent sold by Spray-N-Grow, Inc. of Rockport, Tex.
Seeds of Redina lettuce (Lechuga redina) were treated with MDHJ according to the protocol of Example 2.

[9] = test system: corn (‘Sugar Pearl’) seeds; assay: Germinating corn seeds (48 hours water soak) soaked 1 hour in MDHJ: germination at Day 6 (Example 28); assay type: in vivo; details: for Percent of Seeds Germinated at Day 6, Corn: 1 hour soak after 48 hours in water
Experimental: as §1

[10] = test system: Seeds of tomato (‘Crimson Carmello’); assay: Germinating tomato seeds soaked 1 hour in MDHJ: percent germination, radicle length (Example 26); assay type: in vivo; details: for Percent of Tomato Seeds Germinated, Day 5 / Percent of Tomato Seeds Germinated, Day 7: 1 hour soak of germinating seeds
Experimental: Seeds of tomato (‘Crimson Carmello’) were soaked in water for 24 hours. After 24 hours, seeds were transferred to a solution containing water only (untreated control or UTC), 0.05 mM MDHJ, or 0.5 mM MDHJ in water. There were 8-9 seeds per treatment. After soaking for 1 hour, the seeds were rinsed in water and placed between two layers of water-moistened paper towel in a clear plastic covered tray. The trays were placed at room temperature with normal daylight conditions and allowed to germinate. At day 5 and 7, the percent of germinated seeds was obtained. At days 5 and 7, radicle length was measured in tomato seedlings (no coleoptiles were showing yet). At Day 5 and 7, radicle length was measured in millimeters.

plants [11] = details: U.S. Pat. Nos. 8,013,226 and 8,563,839; cited from earlier work
seed germination = details: Norastehnia et al., Gen. Appl. Plant Physiology, 2007; cited from earlier work

## CC/C=C\CC1C(=O)CCC1CC(=O)O (centres unmarked) [jasmonic acid, 2-(3-oxo-2-(pent-2-enyl)cyclopentyl)acetic acid]
[1]
  pest resistance in the resulting plants: increases pest resistance in the resulting plants up to 10 weeks after sowing

## CCCCCC1C(=O)CCC1CC(=O)OC (centres unmarked) [MDHJ, methyl dihydrojasmonate]
[2]; 1.5 mM MDHJ
  Percent of Seeds Germinated at Day 6, Wheat: 100%
[2]; 1.5 mM and 7.5 mM MDHJ
  General Observation, Wheat: seedlings were stunted
[2]; 7.5 mM MDHJ
  Percent of Seeds Germinated at Day 6, Wheat: 100%
Plants [3]
  biotic attack: effective in reducing biotic attack and disease in plants; also recorded: surprisingly effective at preventing biotic attack
Plants [4]
  flowering characteristics: improves flowering characteristics
[5]; 0.75 mM MDHJ
  Percent Seedling Emergence: 63%
[5]; 0.75 mM-treated seed
  germination compared to the untreated control: increased germination
[5]; 7.50 mM MDHJ
  Percent Seedling Emergence: 50%
[5]; 7.5 mM treated seed
  germination compared to the untreated control: no germination inhibition
[5]; FIG. 6, 24 days after planting, 0.75 mM or 7.5 mM
  growth (plant height, words): did not inhibit growth
[6]; 1.5 mM MDHJ
  germination: improved
  Percent of Seeds Germinated at Day 6, Swiss Chard: 77%
[6]; 7.5 mM MDHJ
  Percent of Seeds Germinated at Day 6, Swiss Chard: 58%
[7]; 0.05 mM MDHJ
  seed germination percentage compared to the untreated control: increased seed germination percentage
  Percent of Wheat Seeds Germinated at Day 7: 95%
[7]; 0.05 mM MDHJ, FIG. 5
  coleoptile length: no decrease in coleoptile length
[7]; 0.50 mM MDHJ
  Percent of Wheat Seeds Germinated at Day 7: 53%
[7]; 0.5 mM and above, FIG. 5
  germination and coleoptile growth: inhibition of germination and coleoptile growth
[7]; 5.00 mM MDHJ
  Percent of Wheat Seeds Germinated at Day 7: 55%
[7]; 5.0 mM treatment
  coleoptiles and radicles: too short to measure
[7]; concentrations below 0.5 mM, germinating wheat in paper towel
  rate of seed germination in wheat: beneficial for improved rate of seed germination
Sugar snap pea seeds; MDHJ concentrations under 1.5 mM
  adverse effect on germination: not to adversely affect germination
Sugar snap pea seeds; in vivo
  germination benefit from MDHJ exposure: no germination benefit was seen
[8]; 15 days after treatment, MDHJ at concentrations below 1.5 mM
  adverse effects on germination: no adverse effects on germination; also recorded: not to adversely affect germination
[8]; in vivo
  germination benefit from MDHJ exposure: no germination benefit was seen
[9]; 1.5 mM MDHJ
  germination: improved
  Percent of Seeds Germinated at Day 6, Corn: 54%
[9]; 7.5 mM MDHJ
  Percent of Seeds Germinated at Day 6, Corn: 0.1%
[10]; 0.05 mM MDHJ
  Percent of Tomato Seeds Germinated, Day 5: 87.5%
  Percent of Tomato Seeds Germinated, Day 7: 100%
[10]; 0.5 mM MDHJ
  Seed germination percentage: enhanced
[10]; 0.50 mM MDHJ
  Percent of Tomato Seeds Germinated, Day 5: 100%
  Percent of Tomato Seeds Germinated, Day 7: 100%
[10]; 0.5 mM MDHJ, by day 7, FIG. 4
  radicle length compared to untreated seeds: increase in radicle length compared to untreated seeds
Plants [11]
  chlorosis and necrosis of leaf senescence: can reduce the chlorosis and necrosis of leaf senescence

## CC/C=C\CC1C(=O)CCC1CC(=O)OC (centres unmarked) [methyl jasmonate]
Seed germination
  seed germination: inhibits seed germination
[1]
  pest resistance in the resulting plants: increases pest resistance in the resulting plants up to 10 weeks after sowing
